The text below walks through data of US20260285866A1, “MODULATORS OF TRPML, THEIR COMPOSITIONS AND METHODS OF USE” (Caraway Therapeutics, Inc., priority 2024, published 2026).

The term pEC50 denotes −log10 of the EC50, conventionally taken in molar units.

SMILES strings stand for the structures. pEC50: −log10 of the molar value. Bounds are passed on as bounds.

Test [1] deals with Human TRPML1 (Homo sapiens, UniProt Q9GZU1, L15A/L16A/L577A/L578A). The experiment in a line: Fluorescent TRPML1 assay (Fluo4-AM, HEK-293 Trex cells expressing hTRPML1). The class given is cell-based. As to conditions: fluorescent calcium assay, doxycycline-induced hTRPML1. The procedure:
Example 27. Fluorescent TRPML Assays
(§1) HEK-293 Trex cells were stably transfected with a construct consisting of the human coding sequence for TRPML1 cloned into the tet-inducible plasmid pCDNA5 T/O. Mutations were introduced into the TRPML1 sequence to facilitate expression on the cell surface (Silvia Vergarajauregui, Rosa Puertollano Traffic. 2006 March; 7(3): 337-353). Briefly, the cells are cultured in 150 mm round tissue culture dishes containing 20 mL of media. The day before the assay the cells are rinsed with DPBS-Ca-Mg and then treated briefly with Trypsin-EDTA. The Trypsin-EDTA is diluted with growth media, and cells are counted. 38×10^6 cells are re-plated into 150 mm round tissue culture dishes in media containing 0.5 μg/mL doxycycline to induce expression of hTRPML1.
(§2) The day of the experiment cells are lifted from the plates as above and collected by centrifugation. The cells are then suspended in dye loading buffer consisting of Ringer's solution supplemented with 0.1% Pluronic Acid and 1 micromolar Fluo4-AM dye. Cells are loaded for ~60 minutes in the dark with occasional mixing. The cells are collected by centrifugation, the loading media aspirated, and the cells resuspended in 25 mL Ringer's solution and incubated ~60 minutes in the dark. The cells are again collected by centrifugation, rinsed in Ringer's Solution and resuspended to 0.2×10^6 cells/mL in modified Ringer's solution containing 10 mM calcium.
(§3) Compounds are dissolved to a concentration of 10 millimolar with DMSO. Compound plates are created by dispensing compounds into 384 well black wall clear bottom plates (Greiner 781091). Positive and negative controls are included on each plate. Typically, different amounts of each compound are tested ranging from 100 nanoMoles (20 micromolar final concentration) decreasing in half-log steps to 31 picoMoles (6 nanomolar final concentration). Each concentration is typically tested in triplicate.
(§4) 50 microliters of dye-loaded cells are dispensed into each well of the compound assay plate created above. The fluorescence in each well is then determined with an excitation wavelength of 480 nm and an emission wavelength of 540 nm using either a Molecular Devices SpectraMax multimode plate reader or a Hamamatsu FDSS/uCell plate imager.
(§5) The resulting fluorescence for each well is exported as an ascii file and loaded into our LIMS for analysis. The percent activity of each compound at each concentration is determined by comparison to the positive and negative control wells included in each plate.
(§6) EC50 values were calculated using a non-linear regression of Prism. In the table, “A” indicates an EC50 of less than 100 nM, “B” indicates an EC50 range from 100 nM to 500 nM: “C” indicates an EC50 range from 500 nM to 2 μM; and “D” indicates an EC50 greater than 2 μM.

Test [2] deals with T1, Human TRPML3 (Homo sapiens, UniProt Q8TDD5).
T1 construct: expressed in transfected cells
T1 sequence (Q8TDD5 1-553): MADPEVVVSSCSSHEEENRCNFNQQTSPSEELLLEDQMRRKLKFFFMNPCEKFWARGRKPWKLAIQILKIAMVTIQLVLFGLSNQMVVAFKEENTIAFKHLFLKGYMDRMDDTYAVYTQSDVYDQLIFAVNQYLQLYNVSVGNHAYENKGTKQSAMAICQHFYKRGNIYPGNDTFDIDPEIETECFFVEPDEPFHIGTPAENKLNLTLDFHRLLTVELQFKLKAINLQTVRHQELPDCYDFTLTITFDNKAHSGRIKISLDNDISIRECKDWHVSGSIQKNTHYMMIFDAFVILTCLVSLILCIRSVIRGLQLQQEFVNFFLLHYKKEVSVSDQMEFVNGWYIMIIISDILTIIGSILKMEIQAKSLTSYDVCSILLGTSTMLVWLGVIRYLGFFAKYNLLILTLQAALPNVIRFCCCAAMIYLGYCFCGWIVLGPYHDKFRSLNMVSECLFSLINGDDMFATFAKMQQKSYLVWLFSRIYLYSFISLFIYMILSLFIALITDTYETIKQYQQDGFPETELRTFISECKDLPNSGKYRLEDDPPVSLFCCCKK
Nature of the test: Fluorescent TRPML3 assay (as for TRPML1). The class given is cell-based. As to conditions: fluorescent calcium assay as for TRPML1, TRPML3 subtype. The procedure:
as §1, §2, §3, §4, §5
Assays for TRPML2 and TRPML3 were performed as above for TRPML1, by substituting the appropriate TRPML2 or TRPML3 subtype for the TRPML1.
as §6

Sequence of Human TRPML1 (Q9GZU1 whole entry L15A/L16A/L577A/L578A): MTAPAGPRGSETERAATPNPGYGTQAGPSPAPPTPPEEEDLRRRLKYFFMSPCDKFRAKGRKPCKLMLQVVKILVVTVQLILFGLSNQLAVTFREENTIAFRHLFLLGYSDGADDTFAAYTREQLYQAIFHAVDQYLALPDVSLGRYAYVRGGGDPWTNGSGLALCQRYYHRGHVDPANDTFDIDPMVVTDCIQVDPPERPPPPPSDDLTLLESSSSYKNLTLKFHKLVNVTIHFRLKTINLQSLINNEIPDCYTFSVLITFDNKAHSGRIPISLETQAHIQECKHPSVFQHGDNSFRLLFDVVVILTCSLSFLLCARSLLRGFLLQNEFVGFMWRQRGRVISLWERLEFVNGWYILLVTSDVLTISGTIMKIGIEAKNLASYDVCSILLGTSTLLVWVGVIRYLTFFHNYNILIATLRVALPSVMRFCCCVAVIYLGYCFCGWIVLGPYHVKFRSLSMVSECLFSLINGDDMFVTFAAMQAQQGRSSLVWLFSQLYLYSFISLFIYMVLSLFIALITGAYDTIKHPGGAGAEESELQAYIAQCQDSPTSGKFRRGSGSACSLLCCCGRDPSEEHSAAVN

As to `C[C@@H]1CN(c2ncnc3c2c(-n2ccnc2)cn3-c2cc(C#N)ccn2)[C@@H](C)CN1C(=O)C(C)(C)O` [Compound 132, 2-(4-((2S,5R)-4-(2-hydroxy-2-methylpropanoyl)-2,5-dimethylpiperazin-1-yl)-5-(1H-imidazol-1-yl)-7H-pyrrolo[2,3-d]pyrimidin-7-yl)isonicotinonitrile], the pEC50 in test [1] and in test [2] was under 5.70 throughout.

With `C[C@@H]1CN(c2ncnc3c2c(-c2ccccc2F)cn3-c2cc(C#N)ccn2)[C@@H](C)CN1C(=O)C1(O)CCC1` [Compound 114, 2-(5-(2-fluorophenyl)-4-((2S,5R)-4-(1-hydroxycyclobutane-1-carbonyl)-2,5-dimethylpiperazin-1-yl)-7H-pyrrolo[2,3-d]pyrimidin-7-yl)isonicotinonitrile], the pEC50 in test [1] is over 7.00; in test [2] it was 6.30 to 7.00.

On to `C[C@@H]1CN(c2nccc3c2c(-c2ccncc2)cn3-c2cccc(C#N)c2)[C@@H](C)CN1C(=O)C(C)(C)O` [Compound 145, 3-(4-((2S,5R)-4-(2-hydroxy-2-methylpropanoyl)-2,5-dimethylpiperazin-1-yl)-3-(pyridin-4-yl)-1H-pyrrolo[3,2-c]pyridin-1-yl)benzonitrile], for which the pEC50 in test [1] and in test [2] was under 5.70 in each case.

On to `C[C@@H]1CN(c2ncnc3c2c(-c2ccns2)cn3-c2cc(C#N)ccn2)[C@@H](C)CN1C(=O)C(C)(C)O` [Compound 153, 2-(4-((2S,5R)-4-(2-hydroxy-2-methylpropanoyl)-2,5-dimethylpiperazin-1-yl)-5-(isothiazol-5-yl)-7H-pyrrolo[2,3-d]pyrimidin-7-yl)isonicotinonitrile], for which the pEC50 in test [1] and in test [2] was 5.70 to 6.30 each time.

As to `C[C@@H]1CN(c2ncnc3c2c(-c2ccccc2F)cn3-c2cc(C#N)ccn2)[C@@H](C)CN1C(=O)C1(O)CCN(C)CC1` [Compound 123, 2-(5-(2-fluorophenyl)-4-((2S,5R)-4-(4-hydroxy-1-methylpiperidine-4-carbonyl)-2,5-dimethylpiperazin-1-yl)-7H-pyrrolo[2,3-d]pyrimidin-7-yl)isonicotinonitrile], the pEC50 in test [1] and in test [2] was under 5.70 each time.

`CC(C)[C@H]1CN(C(=O)C(C)(C)O)[C@H](C)CN1c1ncnc2c1c(-c1ccccc1)cn2-c1cc(C#N)ccn1` [Compound 131, 2-(4-((2S,5R)-4-(2-hydroxy-2-methylpropanoyl)-2-isopropyl-5-methylpiperazin-1-yl)-5-phenyl-7H-pyrrolo[2,3-d]pyrimidin-7-yl)isonicotinonitrile]: the pEC50 in test [1] was 6.30 to 7.00; in test [2], 5.70 to 6.30.

For the compound `C[C@@H]1CN(c2ncnc3c2c(C2CC2)cn3-c2cc(C#N)ccn2)[C@@H](C)CN1C(=O)CC(C)(C)O` [Compound 160, 2-(5-cyclopropyl-4-((2S,5R)-4-(3-hydroxy-3-methylbutanoyl)-2,5-dimethylpiperazin-1-yl)-7H-pyrrolo[2,3-d]pyrimidin-7-yl)isonicotinonitrile], the pEC50 in test [1] and in test [2] was 5.70 to 6.30 each time.

As for `C[C@@H]1CN(c2ncnc3c2c(-c2ccncc2)cn3-c2cccc(F)c2)[C@@H](C)CN1C(=O)C(C)(C)O` [Compound 139, 1-((2R,5S)-4-(7-(3-fluorophenyl)-5-(pyridin-4-yl)-7H-pyrrolo[2,3-d]pyrimidin-4-yl)-2,5-dimethylpiperazin-1-yl)-2-hydroxy-2-methylpropan-1-one], the pEC50 in test [1] and in test [2] was under 5.70 each time.

On to `C[C@@H]1CN(c2ncnc3c2c(-c2cocn2)cn3-c2cc(C#N)ccn2)[C@@H](C)CN1C(=O)C(C)(C)O` [Compound 126, 2-(4-((2S,5R)-4-(2-hydroxy-2-methylpropanoyl)-2,5-dimethylpiperazin-1-yl)-5-(oxazol-4-yl)-7H-pyrrolo[2,3-d]pyrimidin-7-yl)isonicotinonitrile], for which the negative logarithm of the EC50 (pEC50) in test [1] was 5.70 to 6.30; in test [2], under 5.70.

`C[C@@H]1CN(c2ncnc3c2c(-c2cncnc2)cn3-c2cc(C#N)ccn2)[C@@H](C)CN1C(=O)C(C)(C)O` [Compound 116, 2-(4-((2S,5R)-4-(2-hydroxy-2-methylpropanoyl)-2,5-dimethylpiperazin-1-yl)-5-(pyrimidin-5-yl)-7H-pyrrolo[2,3-d]pyrimidin-7-yl)isonicotinonitrile]: the pEC50 in test [1] and in test [2] was under 5.70 each time.

For the compound `C[C@@H]1CN(c2nccc3c2c(-c2ccncc2)cn3-c2cc(C#N)ccn2)[C@@H](C)CN1C(=O)C(C)(C)O` [Compound 140, 2-(4-((2S,5R)-4-(2-hydroxy-2-methylpropanoyl)-2,5-dimethylpiperazin-1-yl)-3-(pyridin-4-yl)-1H-pyrrolo[3,2-c]pyridin-1-yl)isonicotinonitrile], the pEC50 in test [1] was 5.70 to 6.30; in test [2], under 5.70.

Take `C[C@@H]1CN(c2ncnc3c2c(-c2ccccc2F)cn3-c2cc(C#N)ccn2)[C@@H](C)CN1C(=O)C1(O)CC1` [Compound 157, 2-(5-(2-fluorophenyl)-4-((2S,5R)-4-(1-hydroxycyclopropane-1-carbonyl)-2,5-dimethylpiperazin-1-yl)-7H-pyrrolo[2,3-d]pyrimidin-7-yl)isonicotinonitrile]: the pEC50 in test [1] and in test [2] was under 5.70 each time.

For the compound `CC[C@H]1CN(C(=O)C(C)(C)O)CCN1c1ncnc2c1c(-c1ccccc1)cn2-c1cc(C#N)ccn1` [Compound 111, (S)-2-(4-(2-ethyl-4-(2-hydroxy-2-methylpropanoyl)piperazin-1-yl)-5-phenyl-7H-pyrrolo[2,3-d]pyrimidin-7-yl)isonicotinonitrile], the figures for the pEC50 in test [1] and in test [2] were 6.30 to 7.00 and 5.70 to 6.30, respectively.

`C[C@@H]1CN(c2ncnc3c2c(-c2ccccc2)cn3-c2cc(C#N)ccn2)[C@@H](C)CN1C(=O)C1(O)CC1` [Compound 156, 2-(4-((2S,5R)-4-(1-hydroxycyclopropane-1-carbonyl)-2,5-dimethylpiperazin-1-yl)-5-phenyl-7H-pyrrolo[2,3-d]pyrimidin-7-yl)isonicotinonitrile]: the pEC50 was 5.70 to 6.30 in test [1] and under 5.70 in test [2].

In the case of `C[C@@H]1CN(c2nccc3c2c(-c2ccncc2)cn3-c2cccc(Cl)c2)[C@@H](C)CN1C(=O)C(C)(C)O` [Compound 142, 1-((2R,5S)-4-(1-(3-chlorophenyl)-3-(pyridin-4-yl)-1H-pyrrolo[3,2-c]pyridin-4-yl)-2,5-dimethylpiperazin-1-yl)-2-hydroxy-2-methylpropan-1-one], the figures for the pEC50 in test [1] and in test [2] were 5.70 to 6.30 and under 5.70, respectively.

In the case of `C[C@@H]1CN(c2ncnc3c2c(-c2cccnc2)cn3-c2cc(C#N)ccn2)[C@@H](C)CN1C(=O)C(C)(C)O` [Compound 115, 2-(4-((2S,5R)-4-(2-hydroxy-2-methylpropanoyl)-2,5-dimethylpiperazin-1-yl)-5-(pyridin-3-yl)-7H-pyrrolo[2,3-d]pyrimidin-7-yl)isonicotinonitrile], the figures for the pEC50 in test [1] and in test [2] were 5.70 to 6.30 and under 5.70, respectively.

For the compound `CC(C)(O)C(=O)N1CCN(c2ncnc3c2c(-c2ccccc2)cn3-c2cc(C#N)ccn2)[C@@H](C2CC2)C1` [Compound 113], the pEC50 in test [1] and in test [2] was 5.70 to 6.30 in each case.
